Experimental findings from ChEMBL document CHEMBL5252588, “Palladium-Catalyzed Synthesis, Acetylcholinesterase Inhibition, and Neuroprotective Activities of N-Aryl Galantamine Analogues” (J Nat Prod, 2023) are described below.

In data set [1] the target is Cholinesterase (Equus caballus) (UniProt P81908). In words: Inhibition of equine serum BChE using butyrylthiocholine iodide as substrate at 50 to 100 uM preincubated for 20 mins followed by substrate addition and measured after 20 mins by Ellman's method. The note with it: dose 50-100 µM, time 40.0 min.
Cholinesterase (Equus caballus), sequence (P81908 whole entry): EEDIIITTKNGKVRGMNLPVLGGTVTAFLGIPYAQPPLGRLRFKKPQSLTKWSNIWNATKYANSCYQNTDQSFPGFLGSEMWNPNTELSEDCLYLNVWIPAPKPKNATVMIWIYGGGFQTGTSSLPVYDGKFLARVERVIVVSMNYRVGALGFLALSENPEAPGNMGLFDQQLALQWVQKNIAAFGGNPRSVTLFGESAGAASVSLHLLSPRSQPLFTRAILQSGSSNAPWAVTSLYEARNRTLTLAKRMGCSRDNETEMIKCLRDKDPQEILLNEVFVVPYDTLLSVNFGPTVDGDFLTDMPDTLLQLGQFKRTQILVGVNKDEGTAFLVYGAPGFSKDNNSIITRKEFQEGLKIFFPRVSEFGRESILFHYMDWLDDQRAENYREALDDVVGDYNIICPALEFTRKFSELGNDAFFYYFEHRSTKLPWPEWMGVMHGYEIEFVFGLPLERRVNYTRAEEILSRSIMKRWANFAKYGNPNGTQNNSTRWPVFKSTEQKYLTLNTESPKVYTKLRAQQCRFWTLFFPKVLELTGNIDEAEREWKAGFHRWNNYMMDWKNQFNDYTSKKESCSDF
For data set [2], the system named is SH-SY5Y. Kind of data set: Neuroprotective activity against H2O2-induced injury in human SH-SY5Y cells assessed as […] in cell viability at 50 uM preincubated with compound for 24 hrs followed by H2O2-addition and measured after 4 hrs by MTT assay relative to control. Format: functional. The note with it: time 28 hrs.
Data set [3] deals with Acetylcholinesterase (Electrophorus electricus) (UniProt O42275). In words: Inhibition of electric eel AChE using acetylthiocholine iodide as substrate at 50 to 100 uM preincubated with compounds for 20 mins followed by substrate addition and measured after 20 mins by Ellman's method relative to control. The note with it: dose 50-100 µM, time 40.0 min.
Acetylcholinesterase (Electrophorus electricus), sequence (O42275 24-633 limits assumed): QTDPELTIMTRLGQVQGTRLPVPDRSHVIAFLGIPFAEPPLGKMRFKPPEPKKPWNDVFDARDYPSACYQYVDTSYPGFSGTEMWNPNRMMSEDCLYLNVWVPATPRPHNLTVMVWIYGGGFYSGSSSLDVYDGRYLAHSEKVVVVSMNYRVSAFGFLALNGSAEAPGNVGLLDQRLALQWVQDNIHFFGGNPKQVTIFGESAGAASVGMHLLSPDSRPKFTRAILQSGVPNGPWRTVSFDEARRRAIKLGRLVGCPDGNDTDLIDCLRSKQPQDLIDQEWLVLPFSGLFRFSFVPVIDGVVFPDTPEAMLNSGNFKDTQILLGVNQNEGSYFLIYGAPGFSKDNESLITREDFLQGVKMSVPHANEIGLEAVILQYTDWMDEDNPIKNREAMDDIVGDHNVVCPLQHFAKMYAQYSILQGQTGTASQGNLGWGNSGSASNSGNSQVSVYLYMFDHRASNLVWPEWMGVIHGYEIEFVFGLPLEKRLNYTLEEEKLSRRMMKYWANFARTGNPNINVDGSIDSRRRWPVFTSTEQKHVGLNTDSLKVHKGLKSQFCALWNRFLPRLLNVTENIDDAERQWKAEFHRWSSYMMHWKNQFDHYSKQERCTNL
In data set [4] the test system is SH-SY5Y. In words: Cytotoxicity against human SH-SY5Y cells assessed as reduction in cell viability. Format: toxicity, cell-based.
The next data set addresses Acetylcholinesterase (Electrophorus electricus, UniProt O42275). Kind of data set: Inhibition of electric eel AChE using acetylthiocholine iodide as substrate preincubated with compounds for 20 mins followed by substrate addition and measured after 20 mins by Ellman's method relative to control.
Data set [5] concerns the target Acetylcholinesterase (Electrophorus electricus) (UniProt O42275). Kind of data set: Inhibition of electric eel AChE using acetylthiocholine iodide as substrate at 50 uM preincubated with compounds for 20 mins followed by substrate addition and measured after 20 mins by Ellman's method relative to control. The note with it: time 40.0 min.
Data set [6] deals with SH-SY5Y. In words: Neuroprotective activity against H2O2-induced injury in human SH-SY5Y cells assessed as inhibition of H2O2-induced apoptosis at 50 uM preincubated with compound for 24 hrs followed by H2O2-addition and measured after 4 hrs by TUNEL staining based analysis. Format: functional, cell-based. The note with it: time 28.0 hrs.
Data set [7] deals with SH-SY5Y. Kind of data set: Neuroprotective activity against H2O2-induced injury in human SH-SY5Y cells assessed as decrease in caspase-3 protein expression at 50 uM preincubated with compound for 24 hrs followed by H2O2-addition and measured after 4 hrs by immunoblot analysis. The settings on record: time 28.0 hrs. The class given is functional, cell-based.
The subject of data set [8] is SH-SY5Y. In words: Neuroprotective activity against H2O2-induced injury in human SH-SY5Y cells assessed as increase in Bcl-2 protein expression at 50 uM preincubated with compound for 24 hrs followed by H2O2-addition and measured after 4 hrs by immunoblot analysis. The class given is functional, cell-based. The settings on record: time 28.0 hrs.
The subject of data set [9] is SH-SY5Y. In words: Neuroprotective activity against H2O2-induced injury in human SH-SY5Y cells assessed as decrease in cleaved caspase-3 at 50 uM preincubated with compound for 24 hrs followed by H2O2-addition and measured after 4 hrs by immunoblot analysis. The class given is functional, cell-based. The note with it: time 28.0 hrs.

The source made the active and inactive calls. The rule behind the calls is not given here. Bounds are passed on as bounds.

Acetylcholinesterase, sequence (O42275 whole entry): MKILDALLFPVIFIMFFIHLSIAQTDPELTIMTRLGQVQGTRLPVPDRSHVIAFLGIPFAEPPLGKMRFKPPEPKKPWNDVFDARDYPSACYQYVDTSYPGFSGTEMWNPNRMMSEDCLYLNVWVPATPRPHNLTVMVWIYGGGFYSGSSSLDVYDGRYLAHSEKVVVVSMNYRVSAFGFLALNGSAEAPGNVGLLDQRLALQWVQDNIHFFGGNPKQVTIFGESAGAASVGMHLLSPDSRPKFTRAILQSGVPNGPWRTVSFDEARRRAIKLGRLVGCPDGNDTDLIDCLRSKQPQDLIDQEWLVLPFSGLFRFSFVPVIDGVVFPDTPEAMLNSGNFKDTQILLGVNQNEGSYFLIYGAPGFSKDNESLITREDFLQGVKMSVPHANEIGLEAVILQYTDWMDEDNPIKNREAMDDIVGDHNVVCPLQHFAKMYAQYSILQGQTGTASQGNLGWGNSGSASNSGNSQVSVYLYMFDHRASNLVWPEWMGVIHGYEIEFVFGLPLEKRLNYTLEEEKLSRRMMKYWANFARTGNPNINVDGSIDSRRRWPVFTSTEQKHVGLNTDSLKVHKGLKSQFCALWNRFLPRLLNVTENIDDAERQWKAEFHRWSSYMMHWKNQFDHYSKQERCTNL

As for `COc1ccc2c3c1O[C@H]1C[C@@H](O)C=C[C@@]31CCN(c1ccc(OC(C)C)nc1)C2`, the inhibition result in data set [1] was “inactive”. Moreover, in the data set on SH-SY5Y [2], the Activity is listed as 42%.
In the case of `COc1ccc2c3c1O[C@H]1C[C@@H](O)C=C[C@@]31CCN(c1ccc(F)cc1)C2`, the inhibition in [3] was less than 50%. In addition, the inhibition entry in data set [1] was “inactive”. For the same molecule, the Activity in the data set on SH-SY5Y [2] is 39%.
With `COc1ccc2c3c1O[C@H]1C[C@@H](O)C=C[C@@]31CCN(c1ncccc1F)C2`, in data set [1], the inhibition result is “inactive”. Moreover, the Activity result in the data set with SH-SY5Y [4] was “Toxic”.
Take `COc1ccc2c3c1O[C@H]1C[C@@H](O)C=C[C@@]31CCN(C)C2` [GALANTAMINE]: the Activity with SH-SY5Y [2] is 44%.
As for `COc1ccc2c3c1O[C@H]1C[C@@H](O)C=C[C@@]31CCN(c1ccc(C(C)(C)C)cc1)C2`, in data set [3], the inhibition is less than 50%. For the same molecule, the inhibition result in [1] was “inactive”. For the same molecule, the Activity entry in the data set on SH-SY5Y [4] is given as “Toxic”.
Take `COc1ccc2c3c1O[C@H]1C[C@@H](O)C=C[C@@]31CCN(c1cccc(C(F)(F)F)c1)C2`: the inhibition in [3] was less than 50%. For the same molecule, the inhibition entry in data set [1] was “inactive”. For the same molecule, the Activity in the data set with SH-SY5Y [2] is 53%.
For the molecule `COc1ccc2c3c1O[C@H]1C[C@@H](O)C=C[C@@]31CCN(c1cccc(C)n1)C2`, the inhibition entry in [1] was “inactive”. The IC50 at Acetylcholinesterase amounted to 17 µM. Besides, the Activity in the data set on SH-SY5Y [2] is on record as 55%. Further, the inhibition in data set [5] is greater than 50%.
For `COc1ccc2c3c1O[C@H]1C[C@@H](O)C=C[C@@]31CCN(c1ncccc1C)C2`, the inhibition result in [1] was “inactive”. Moreover, the IC50 on Acetylcholinesterase amounted to 1.7 µM. Moreover, in the data set on SH-SY5Y [2], the Activity turned out to be 37%. Besides, in [5], the inhibition is greater than 50%.
On to `CCOc1ccc(N2CC[C@@]34C=C[C@H](O)C[C@@H]3Oc3c(OC)ccc(c34)C2)nc1`, for which the inhibition result in data set [1] was “inactive”. Moreover, the Activity in the data set on SH-SY5Y [2] is on record as 41%.
On the same counts, the results for `COc1ccc2c3c1O[C@H]1C[C@@H](O)C=C[C@@]31CCN(c1cc(C)ccn1)C2` are “inactive” and 41%.
Regarding `COc1ccc(N2CC[C@@]34C=C[C@H](O)C[C@@H]3Oc3c(OC)ccc(c34)C2)cc1`, the inhibition in [3] was less than 50%. Moreover, the inhibition result in data set [1] is “inactive”. The Activity in the data set on SH-SY5Y [2] is 37%.
On to `COc1ccc2c3c1O[C@H]1C[C@@H](O)C=C[C@@]31CCN(c1ccc(C)cc1)C2`, for which the inhibition in data set [3] is less than 50%. In data set [1], the inhibition entry was “inactive”. In addition, in the data set with SH-SY5Y [4], the Activity result is listed as “Toxic”.
Turning to `COc1ccnc(N2CC[C@@]34C=C[C@H](O)C[C@@H]3Oc3c(OC)ccc(c34)C2)c1`, in [1], the inhibition result was “inactive”. In addition, the IC50 on Acetylcholinesterase is 0.19 µM. The outcome with SH-SY5Y [6], with SH-SY5Y [8] and in the data set on SH-SY5Y [9] was Active. Also, the Activity in the data set on SH-SY5Y [2] amounted to 70%. Further, in the data set with SH-SY5Y [7], the result was inactive. Besides, the inhibition in [5] is greater than 50%.
Regarding `COc1ccc2c3c1O[C@H]1C[C@@H](O)C=C[C@@]31CCN(c1ccc3ncccc3c1)C2`, in data set [3], the inhibition is less than 50%. Besides, the inhibition result in [1] was “inactive”. In addition, the Activity in the data set with SH-SY5Y [2] came out at 56%.
`COc1ccc2c3c1O[C@H]1C[C@@H](O)C=C[C@@]31CCN(c1ccccn1)C2`: in [1], the inhibition result is “inactive”. Moreover, on Acetylcholinesterase, the IC50 was 3.6 µM. Moreover, in the data set with SH-SY5Y [2], the Activity worked out at 59%. Also, the inhibition in data set [5] was greater than 50%.
Turning to `CCc1ccc(-c2ccc(N3CC[C@@]45C=C[C@H](O)C[C@@H]4Oc4c(OC)ccc(c45)C3)cc2)cc1`, the inhibition in data set [3] was less than 50%. In [1], the inhibition result is “inactive”. The Activity result in the data set with SH-SY5Y [4] was “Toxic”.
As to `COc1ccc2c3c1O[C@H]1C[C@@H](O)C=C[C@@]31CCN(c1ccc(-c3ccccn3)cc1)C2`, the inhibition in data set [3] was less than 50%. In addition, the inhibition entry in data set [1] is “inactive”. Besides, the Activity in the data set with SH-SY5Y [2] is on record as 38%; in the data set on SH-SY5Y [4], “Toxic”.
Regarding `COc1cccc(N2CC[C@@]34C=C[C@H](O)C[C@@H]3Oc3c(OC)ccc(c34)C2)c1`, in data set [3], the inhibition was less than 50%. For the same molecule, the inhibition entry in [1] is “inactive”. Moreover, the Activity in the data set on SH-SY5Y [2] is 40%.
Regarding `COc1cccc(N2CC[C@@]34C=C[C@H](O)C[C@@H]3Oc3c(OC)ccc(c34)C2)n1`, the inhibition entry in data set [1] was “inactive”. Moreover, in the data set on SH-SY5Y [2], the Activity was 66%.
Consider `COc1ccc2c3c1O[C@H]1C[C@@H](O)C=C[C@@]31CCN(c1ccc3c(c1)OCO3)C2`, for which the inhibition in data set [3] is less than 50%. For the same molecule, the inhibition entry in [1] is “inactive”. Besides, in the data set on SH-SY5Y [2], the Activity is 39%.
In the case of `COc1ccc2c3c1O[C@H]1C[C@@H](O)C=C[C@@]31CCN(c1ncccn1)C2`, the inhibition result in data set [1] is “inactive”. Moreover, the Activity in the data set with SH-SY5Y [2] was 60%.
As to `COc1cccnc1N1CC[C@@]23C=C[C@H](O)C[C@@H]2Oc2c(OC)ccc(c23)C1`, the inhibition entry in [1] was “inactive”. Also, the IC50 on Acetylcholinesterase was found to be 27 µM. Further, the Activity with SH-SY5Y [2] came out at 40%. Further, the inhibition in data set [5] was greater than 50%.
`COc1ccc2c3c1O[C@H]1C[C@@H](O)C=C[C@@]31CCN(c1cc(C(F)(F)F)cc(C(F)(F)F)c1)C2`: the inhibition in data set [3] is less than 50%. Also, the inhibition entry in data set [1] is “inactive”. In addition, the Activity entry in the data set on SH-SY5Y [4] is given as “Toxic”.
Regarding `COc1ccc2c3c1O[C@H]1C[C@@H](O)C=C[C@@]31CCN(c1ccc(C(F)(F)F)nc1)C2`, the inhibition result in data set [1] is “inactive”. In the data set with SH-SY5Y [2], the Activity worked out at 63%.
As to `CCCCc1ccc(N2CC[C@@]34C=C[C@H](O)C[C@@H]3Oc3c(OC)ccc(c34)C2)cc1`, the inhibition in data set [3] was less than 50%. Further, the inhibition result in data set [1] is “inactive”. Also, the Activity result in the data set with SH-SY5Y [4] was “Toxic”.
